Data reported in patent US8436014B2, “Solid forms of N-(4-(7-azabicyclo[2.2.1]heptan-7-yl)-2-(trifluorormethyl)phenyl)-4-oxo-5-(trifluoromethyl)-1,4-dihyroquinoline-3-carboxamide” (Vertex Pharmaceutical Incorporated, priority 2008, dated 2013).
pEC50: −log10 of the molar value.

Biological target: T1, ΔF508-CFTR (Homo sapiens, UniProt P13569, DEL508-508)
T1 construct: expressed in transfected cells
Test: Membrane potential optical assay for ΔF508-CFTR potentiation (FLIPR III, voltage sensing dyes)
Type: cell-based
Details: assay not named in the result sentence
Text: Membrane Potential Optical Methods for Assaying ΔF508-CFTR Modulation Properties of Compounds
The assay utilizes fluorescent voltage sensing dyes to measure changes in membrane potential using a fluorescent plate reader (e.g., FLIPR III, Molecular Devices, Inc.) as a readout for increase in functional ΔF508-CFTR in NIH 3T3 cells. The driving force for the response is the creation of a chloride ion gradient in conjunction with channel activation by a single liquid addition step after the cells have previously been treated with compounds and subsequently loaded with a voltage sensing dye.
To identify potentiators of ΔF508-CFTR, a double-addition HTS assay format was developed. This HTS assay utilizes fluorescent voltage sensing dyes to measure changes in membrane potential on the FLIPR III as a measurement for increase in gating (conductance) of ΔF508 CFTR in temperature-corrected ΔF508 CFTR NIH 3T3 cells. The driving force for the response is a Cl− ion gradient in conjunction with channel activation with forskolin in a single liquid addition step using a fluoresecent plate reader such as FLIPR III after the cells have previously been treated with potentiator compounds (or DMSO vehicle control) and subsequently loaded with a redistribution dye.
Solutions • Bath Solution #1: (in mM) NaCl 160, KCl 4.5, CaCl2 2, MgCl2 1, HEPES 10, pH 7.4 with NaOH. […]

T1 sequence (P13569 with tags, fused parts or gaps DEL508-508): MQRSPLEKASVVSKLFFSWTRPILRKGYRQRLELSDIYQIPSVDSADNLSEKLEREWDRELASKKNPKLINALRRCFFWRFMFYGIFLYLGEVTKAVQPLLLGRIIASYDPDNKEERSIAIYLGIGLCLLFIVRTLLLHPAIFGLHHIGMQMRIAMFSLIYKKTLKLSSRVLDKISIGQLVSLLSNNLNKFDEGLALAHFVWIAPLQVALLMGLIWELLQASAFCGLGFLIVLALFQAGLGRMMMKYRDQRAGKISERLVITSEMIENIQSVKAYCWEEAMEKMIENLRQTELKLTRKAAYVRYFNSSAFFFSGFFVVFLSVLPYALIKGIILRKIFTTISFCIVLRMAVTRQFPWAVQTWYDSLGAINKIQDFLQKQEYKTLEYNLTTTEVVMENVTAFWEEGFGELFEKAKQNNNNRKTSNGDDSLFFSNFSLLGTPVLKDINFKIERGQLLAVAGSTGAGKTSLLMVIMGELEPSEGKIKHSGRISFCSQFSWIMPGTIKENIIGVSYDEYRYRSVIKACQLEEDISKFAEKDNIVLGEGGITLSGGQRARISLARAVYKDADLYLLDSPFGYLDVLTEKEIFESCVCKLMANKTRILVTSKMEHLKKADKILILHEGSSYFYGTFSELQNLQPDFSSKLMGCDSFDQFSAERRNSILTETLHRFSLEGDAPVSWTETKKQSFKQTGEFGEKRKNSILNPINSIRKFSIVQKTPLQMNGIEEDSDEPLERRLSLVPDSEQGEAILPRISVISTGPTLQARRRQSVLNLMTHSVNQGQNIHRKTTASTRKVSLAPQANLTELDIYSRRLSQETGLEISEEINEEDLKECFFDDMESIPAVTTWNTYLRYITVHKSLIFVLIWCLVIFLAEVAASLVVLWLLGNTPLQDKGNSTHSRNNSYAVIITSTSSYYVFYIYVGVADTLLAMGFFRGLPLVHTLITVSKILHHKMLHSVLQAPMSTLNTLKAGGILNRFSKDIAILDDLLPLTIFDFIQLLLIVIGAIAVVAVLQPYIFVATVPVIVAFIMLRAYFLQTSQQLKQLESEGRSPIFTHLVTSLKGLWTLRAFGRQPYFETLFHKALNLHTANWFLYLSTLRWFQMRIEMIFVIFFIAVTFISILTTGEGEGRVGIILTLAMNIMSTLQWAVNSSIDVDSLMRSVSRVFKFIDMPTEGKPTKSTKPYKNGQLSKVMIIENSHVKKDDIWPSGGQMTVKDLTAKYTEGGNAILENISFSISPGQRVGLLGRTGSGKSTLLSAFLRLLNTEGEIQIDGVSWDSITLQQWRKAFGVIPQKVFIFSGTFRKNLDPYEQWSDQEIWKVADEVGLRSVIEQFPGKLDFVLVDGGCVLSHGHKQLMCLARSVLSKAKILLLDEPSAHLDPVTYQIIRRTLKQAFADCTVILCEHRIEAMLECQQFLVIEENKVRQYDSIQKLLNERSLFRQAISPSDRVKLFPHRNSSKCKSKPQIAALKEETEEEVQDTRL

## O=C(Nc1ccc(N2C3CCC2CC3)cc1C(F)(F)F)c1c[nH]c2cccc(C(F)(F)F)c2c1=O [Compound 1 Form A, N-(4-(7-azabicyclo[2.2.1]heptan-7-yl)-2-(trifluoromethyl)phenyl)-4-oxo-5-(trifluoromethyl)-1,4-dihydroquinoline-3-carboxamide]
  pEC50: > 5.70
